How the values were obtained:
Type in all cases: biochemical
MMP-3 = molecular target: T1, MMP-3 (Homo sapiens, UniProt P08254); experiment: In vitro MMP-3 inhibition test
T1 construct: purchased R&D Systems 513-MP
Text: (§1) The MMP-mediated amidolytic cleavage of a suitable peptide substrate leads to an increase in fluorescent light here too. The signal intensity of the fluorescent light is directly proportional to the enzyme activity. The active concentration of a test compound at which half the enzyme is inhibited (50% signal intensity of the fluorescent light) is reported as the IC50 value.
(§2) Recombinant MMP-3 (from R&D Systems, 513-MP) is chemically activated in accordance with the manufacturer's instructions using APMA. 1 μl of the test compound to be analysed (as a solution in DMSO, suitable concentrations, for example, 1 nM to 30 μM) is pipetted into 24 μl of activated enzyme (final concentration, for example, 2 nM) in reaction buffer (50 mM Tris/HCl pH 7.5, 10 mM CaCl2, 150 mM NaCl, 0.05% Brij®-35) in a white 384-hole microtiter plate (MTP). The enzymatic reaction is started by adding the intramolecularly quenched Mca-Arg-Pro-Lys-Pro-Val-Glu-Nval-Trp-Arg-Lys(Dnp)-NH2 substrate (final concentration, for example, 10 μM; R&D Systems, ES-002), so as to result in a total test volume of 50 The course of the MMP-3 reaction is measured by measuring the fluorescence intensity (excitation 320 nm, emission 410 nm) over a suitable period of time (for example over 120 min at a temperature of 32° C.).

MMP-7 = molecular target: T2, MMP-7 (Homo sapiens, UniProt P09237); experiment: In vitro MMP-7 inhibition test
T2 construct: purchased R&D Systems 907-MP
T2 sequence (P09237 95-267): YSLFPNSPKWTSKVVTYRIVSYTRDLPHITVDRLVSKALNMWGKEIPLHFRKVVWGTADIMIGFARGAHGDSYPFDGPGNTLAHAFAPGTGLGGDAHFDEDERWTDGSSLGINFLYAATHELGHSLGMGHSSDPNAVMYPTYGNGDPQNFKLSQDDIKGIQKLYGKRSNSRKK
Text: as §1
as §2, with “Recombinant MMP-7” for “Recombinant MMP-3”, “Systems, 907-MP)” for “Systems, 513-MP)”, “example, 0.5” for “example, 2”, “quenched Mca-Pro-Leu-Gly-Leu-Dpa(Dnp)-Ala-Arg-NH2” for “quenched Mca-Arg-Pro-Lys-Pro-Val-Glu-Nval-Trp-Arg-Lys(Dnp)-NH2”, “Systems, ES-001),” for “Systems, ES-002),”, “the MMP-7” for “the MMP-3”

MMP-8 = molecular target: T3, MMP-8 (Homo sapiens, UniProt P22894); experiment: In vitro MMP-8 inhibition test
T3 construct: purchased R&D Systems 908-MP
Text: as §1
(§3) Recombinant MMP-8 (from R&D Systems, 908-MP) is chemically activated in accordance with the manufacturer's instructions using APMA. 1 μl of the test compound to be analysed (as a solution in DMSO, suitable concentrations, for example, 1 nM to 30 μM) is pipetted into 24 μl of activated enzyme (final concentration, for example, 0.5 nM) in reaction buffer (50 mM Tris/HCl pH 7.5, 10 mM CaCl2, 150 mM NaCl, 0.05% Brij®-35) in a white 384-hole microtiter plate (MTP). The enzymatic reaction is started by adding the intramolecularly quenched Mca-Pro-Leu-Gly-Leu-Dpa(Dnp)-Ala-Arg-NH2 substrate (final concentration, for example, 10 μM; R&D Systems, ES-001), so as to result in a total test volume of 50 μl. The course of the MMP-8 reaction is measured by measuring the fluorescence intensity (excitation 320 nm, emission 410 nm) over a suitable period of time (for example over 120 min at a temperature of 32° C.).

MMP-13 = molecular target: T4, MMP-13 (Homo sapiens, UniProt P45452); experiment: In vitro MMP-13 inhibition test
T4 construct: purchased R&D Systems 511-MP
Text: as §1
as §3, with “MMP-13” for “MMP-8”, “511-MP)” for “908-MP)”, “0.1” for “0.5”, “50” for “50 μl.”

MMP-16 = molecular target: T5, MMP-16 (Homo sapiens, UniProt P51512); experiment: In vitro MMP-16 inhibition test
T5 construct: purchased R&D Systems 1785-MP
Text: as §1
Recombinant MMP-16 (from R&D Systems, 1785-MP) is enzymatically activated in accordance with the manufacturer's instructions using recombinant furin (from R&D Systems, 1503-SE). 1 μl of the test compound to be analysed (as a solution in DMSO, suitable concentrations e.g. 1 nM to 30 μM) is pipetted into 24 μl of activated enzyme (final concentration e.g. 1 nM) in reaction buffer (50 mM Tris/HCl pH 7.5, 10 mM CaCl2, 150 mM NaCl, 0.05% Brij®-35) in a white 384-hole microtiter plate (MTP). The enzymatic reaction is started by adding the intramolecularly quenched Mca-Lys-Pro-Leu-Gly-Leu-Dpa(Dnp)-Ala-Arg-NH2 substrate (final concentration, for example, 5 μM; R&D Systems, ES-010), so as to result in a total test volume of 50 The course of the MMP-16 reaction is measured by measuring the fluorescence intensity (excitation 320 nm, emission 410 nm) over a suitable period of time (for example over 120 min at a temperature of 32° C.).

T1 sequence (P08254 100-477): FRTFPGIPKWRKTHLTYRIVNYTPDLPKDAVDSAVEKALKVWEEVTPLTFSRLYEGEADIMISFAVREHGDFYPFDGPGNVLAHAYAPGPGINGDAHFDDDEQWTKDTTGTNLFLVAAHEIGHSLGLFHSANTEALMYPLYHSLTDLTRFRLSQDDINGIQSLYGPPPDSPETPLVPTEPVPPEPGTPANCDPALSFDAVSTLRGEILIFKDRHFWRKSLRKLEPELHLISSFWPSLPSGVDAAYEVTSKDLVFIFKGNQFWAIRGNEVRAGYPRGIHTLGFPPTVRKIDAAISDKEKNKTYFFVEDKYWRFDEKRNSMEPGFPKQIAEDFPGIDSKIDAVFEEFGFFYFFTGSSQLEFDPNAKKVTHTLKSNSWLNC
T5 sequence (P51512 120-564 limits assumed): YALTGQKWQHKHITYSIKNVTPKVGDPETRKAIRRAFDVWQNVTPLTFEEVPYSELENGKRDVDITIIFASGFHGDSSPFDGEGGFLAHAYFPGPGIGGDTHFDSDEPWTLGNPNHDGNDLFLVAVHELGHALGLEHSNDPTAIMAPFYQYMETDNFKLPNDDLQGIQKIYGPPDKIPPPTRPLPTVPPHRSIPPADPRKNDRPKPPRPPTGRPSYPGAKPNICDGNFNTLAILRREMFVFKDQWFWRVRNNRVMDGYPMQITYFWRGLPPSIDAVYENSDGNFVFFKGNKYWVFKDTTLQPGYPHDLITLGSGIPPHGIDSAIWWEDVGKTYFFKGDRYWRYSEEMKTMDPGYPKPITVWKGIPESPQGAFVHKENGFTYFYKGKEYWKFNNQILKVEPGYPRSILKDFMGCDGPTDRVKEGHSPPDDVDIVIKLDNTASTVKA
T3 sequence (P22894 101-467): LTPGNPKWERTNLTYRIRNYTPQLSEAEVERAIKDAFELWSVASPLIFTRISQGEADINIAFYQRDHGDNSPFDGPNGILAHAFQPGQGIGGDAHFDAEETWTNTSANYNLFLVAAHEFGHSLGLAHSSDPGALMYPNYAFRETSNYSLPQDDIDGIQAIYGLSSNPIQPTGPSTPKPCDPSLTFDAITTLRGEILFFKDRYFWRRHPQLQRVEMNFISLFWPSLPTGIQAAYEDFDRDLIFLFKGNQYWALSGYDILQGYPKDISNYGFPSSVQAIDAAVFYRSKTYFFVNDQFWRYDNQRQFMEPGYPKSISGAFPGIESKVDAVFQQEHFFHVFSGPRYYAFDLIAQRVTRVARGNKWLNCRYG

Row | Structure (SMILES) | IC50 (MMP-3) | IC50 (MMP-7) | IC50 (MMP-8) | IC50 (MMP-13) | IC50 (MMP-16)
1 | O=C(O)[C@H]1[C@H](Cn2nnc3ccc(C(F)(F)F)cc3c2=O)CC[C@@H]1C(=O)c1ccc(OCCCC2CCCCC2)cc1 (racemic) [Example 56, (+/−)-(1RS,2RS,5SR)-2-{4-(3-Cyclohexylpropoxy)benzoyl}-5-{[4-oxo-6-(trifluoromethyl)-1,2,3-benzotriazin-3(4H)-yl]methyl}cyclopentanecarboxylic acid] | 2000 nM | 1400 nM | 580 nM | 2400 nM | > 40000 nM
2 | O=C(O)[C@H]1[C@H](Cn2nnc3ccc(C(F)(F)F)cc3c2=O)CC[C@@H]1C(=O)c1ccc(SCc2ccc(Cl)c(Cl)c2)cc1 (racemic) [Example 79, (+/−)-(1RS,2RS,5SR)-2-{4-[(3,4-Dichlorobenzyl)sulphanyl]benzoyl}-5-{[4-oxo-6-(trifluoromethyl)-1,2,3-benzotriazin-3(4H)-yl]methyl}cyclopentanecarboxylic acid] | 800 nM | 1300 nM | 280 nM | 2700 nM | > 40000 nM
3 | Cc1cccc(COc2ccc(C(=O)[C@H]3CC[C@@H](Cn4nnc5ccc(C)cc5c4=O)[C@@H]3C(=O)O)cc2)c1 (racemic) [Example 97, (+/−)-(1RS,2RS,5SR)-2-{4-[(3-Methylbenzyl)oxy]benzoyl}-5-[(6-methyl-4-oxo-1,2,3-benzotriazin-3(4H)-yl)methyl]cyclopentanecarboxylic acid] | 2000 nM | 1500 nM | 310 nM | 1500 nM | 4500 nM
4 | Cc1ccc2nnn(C[C@@H]3CC[C@H](C(=O)c4ccc(OCc5cccc(C(F)(F)F)c5)cc4)[C@H]3C(=O)O)c(=O)c2c1 (racemic) [Example 100, (+/−)-(1RS,2SR,5RS)-2-[(6-Methyl-4-oxo-1,2,3-benzotriazin-3(4H)-yl)methyl]-5-(4-{[3-(trifluoromethyl)benzyl]oxy}benzoyl)cyclopentanecarboxylic acid] | 1500 nM | 1000 nM | 43 nM | 360 nM | 970 nM
5 | Cc1ccc2nnn(C[C@@H]3CC[C@H](C(=O)c4ccc(OCc5cccc(OC(F)(F)F)c5)cc4)[C@H]3C(=O)O)c(=O)c2c1 (racemic) [Example 109, (+/−)-(1RS,2SR,5RS)-2-[(6-Methyl-4-oxo-1,2,3-benzotriazin-3(4H)-yl)methyl]-5-(4-{[3-(trifluoromethoxy)benzyl]oxy}benzoyl)cyclopentanecarboxylic acid] | 840 nM | 1700 nM | 87 nM | 190 nM | 3200 nM

The next compounds have a lower IC50 (MMP-3) than those just listed; values first:

Row | IC50 (MMP-3) | IC50 (MMP-7) | IC50 (MMP-8) | IC50 (MMP-13) | IC50 (MMP-16) | Structure (SMILES)
6 | 96 nM | 120 nM | 6.2 nM | 230 nM | 670 nM | CCCCCSc1ccc(C(=O)[C@H]2CC[C@@H](Cn3nnc4ccc(C(F)(F)F)cc4c3=O)[C@@H]2C(=O)O)cc1 (racemic) [Example 88, (+/−)-(1RS,2SR,5RS)-2-{[4-Oxo-6-(trifluoromethyl)-1,2,3-benzotriazin-3(4H)-yl]methyl}-5-[4-(pentylsulphanyl)benzoyl]cyclopentanecarboxylic acid]
7 | 190 nM | 190 nM | 3 nM | 50 nM | 1700 nM | Cc1ccc2nnn(C[C@@H]3CC[C@H](C(=O)c4ccc(OCc5ccccc5)cc4)[C@H]3C(=O)O)c(=O)c2c1 (racemic) [Example 91, (+/−)-(1RS,2RS,5SR)-2-[4-(Benzyloxy)benzoyl]-5-[(6-methyl-4-oxo-1,2,3-benzotriazin-3(4H)-yl)methyl]cyclopentanecarboxylic acid]
8 | 340 nM | 330 nM | 41 nM | 250 nM | 14000 nM | Cc1ccc2nnn(C[C@@H]3CC[C@H](C(=O)c4ccc(OCc5cccc(Cl)c5)cc4)[C@H]3C(=O)O)c(=O)c2c1 (racemic) [Example 103, (+/−)-(1RS,2RS,5SR)-2-{4-[(3-Chlorobenzyl)oxy]benzoyl}-5-[(6-methyl-4-oxo-1,2,3-benzotriazin-3(4H)-yl)methyl]cyclopentanecarboxylic acid]
9 | 450 nM | 190 nM | 11 nM | 120 nM | 190 nM | COc1cccc(COc2ccc(C(=O)[C@H]3CC[C@@H](Cn4nnc5ccc(C)cc5c4=O)[C@@H]3C(=O)O)cc2)c1 (racemic) [Example 106, (+/−)-(1RS,2RS,5SR)-2-{4-[(3-Methoxybenzyl)oxy]benzoyl}-5-[(6-methyl-4-oxo-1,2,3-benzotriazin-3(4H)-yl)methyl]cyclopentanecarboxylic acid]
10 | 540 nM | 390 nM | 11 nM | 230 nM | 11000 nM | CCCCCOc1ccc(C(=O)[C@H]2CC[C@@H](Cn3nnc4ccc(C)cc4c3=O)[C@@H]2C(=O)O)cc1 (racemic) [Example 123, (+/−)-(1RS,2SR,5RS)-2-[(6-Methyl-4-oxo-1,2,3-benzotriazin-3(4H)-yl)methyl]-5-[4-(pentyloxy)benzoyl]cyclopentanecarboxylic acid]
11 | 62 nM | 120 nM | 0.88 nM | 33 nM | 170 nM | O=C(O)[C@@H]1[C@@H](Cn2nnc3ccc(C(F)(F)F)cc3c2=O)CC[C@H]1C(=O)c1ccc(OCc2ccc(F)cc2)cc1 (single isomer, unassigned) [Example 13, (+)-(1RS,2RS,5SR)-2-{4-[(4-Fluorobenzyl)oxy]benzoyl}-5-{[4-oxo-6-(trifluoromethyl)-1,2,3-benzotriazin-3(4H)-yl]methyl}cyclopentanecarboxylic acid]
